Consider 1 compound from ChEMBL document CHEMBL1129674, “Design, synthesis, and biological activity of a potent inhibitor of the neuropeptidase N-acetylated alpha-linked acidic dipeptidase” (J Med Chem, 1996).

Common to all, as to assay type: functional
Test [1] is filed under the species Rattus norvegicus. Description: In vitro effect KCL-Evoked Giutamate at 10.0 nM.
The species named for test [2] is Rattus norvegicus. Description: In vitro effect of compound on Basal Glutamate Efflux at 1.0 nM.
For test [3], the species on record is Rattus norvegicus. Description: In vitro effect of compound on Basal Glutamate Efflux at 0.1 nM.
The species named for test [4] is Rattus norvegicus. Description: In vitro effect KCL-Evoked Giutamate at 0.1 nM.
Test [5] is filed under the species Rattus norvegicus. Description: In vitro effect of compound on Basal Glutamate Efflux at 10.0 nM.
The species entered for test [6] is Rattus norvegicus. Description: In vitro effect KCL-Evoked Glutamate at 1.0 nM.

For the compound `O=C(O)CCC(CP(=O)(O)O)C(=O)O` (stereo unspecified), the Release came to 437 in the test filed under Rattus norvegicus [1], 316 in the test filed under Rattus norvegicus [4] and 368 in the test listed under Rattus norvegicus [6]. Also, the values for the Efflux in the test listed under Rattus norvegicus [2], in the test listed under Rattus norvegicus [3] and in the test filed under Rattus norvegicus [5] were 137%, 151% and 167%, respectively.
